Reference: patent US6818656B2, “Method and composition for treatment of irritable bowel disease” (University of Florida, priority 2001, dated 2004)

Tests used:
[1] = tested on: stress-induced fecal output; test: Psychological stress-induced (water avoidance) IBS model, SC administration; assay type: in vivo; details: for Stool Output: 6-h collection
Text: (§1) For drug preparation and administration, the compounds were put into solution with sterile normal saline and sonicated briefly, if necessary. The drugs were made up at concentrations such that the rats received the drugs PO or SC at the rate of 1 cc per kilogram. Mice received the CHX(3,4,3)-trans IP at 1 cc per 100 grams. The solutions were made fresh the day of the study. Control animals received an equivalent amount of saline PO or SC.
Animal care and experimental procedures were approved by the Institutional Animal Care and Use Committee. Male Sprague-Dawley rats (250-350 g, Harlan Sprague-Dawley, Indianapolis, Ind.) were housed in polycarbonate cages in a temperature- and humidity-controlled room with a 12-hour light/dark cycle. The experiments were performed at the same time of the day to decrease diurnal variability. A typical experiment involved 20 rats: 5 saline-treated controls and 5 pretreated with polyamine analogues at each of three doses as either a SC injection or a PO gavage. The rats in the SC studies and in one set of experiments involving PO administration were allowed ad libitum access to a standard rodent diet and tap water until the morning of the experiment. Stress was initiated 30 minutes post drug as described below. In another set of experiments involving PO administration, the animals were fasted overnight but were allowed free access to water. […] In a final experiment, non-stressed control rats were injected with saline SC and housed in individual polycarbonate cages. The fecal output (number of pellets) of the stressed and unstressed animals was recorded at 30-min intervals for a 6-h period, during which they received no food or water.
(§2) To initiate the stress, water was added to each cage to a depth of at least 4.5 cm, i.e., within 0.5 cm of the top of the Pyrex dish. To avoid contact with water, the rats stand on the glass dish for the 6 h of the study. Stool output was expressed as the total number of fecal pellets excreted over the 6-h collection period. Percent reduction was calculated by dividing the mean value from the treated animals (T) by the mean value from the control animals (C), subtracting the resulting quotient from 1.0, and multiplying by 100 [i.e., (1.0−T/C)×100].
(§3) A one-tailed t-test assuming unequal variance was performed on the stool output data of the treated vs control (0 mg/kg) animals for each compound. A value of P<0.05 was considered significant.
The psychological stress-induced IBS model involves subjecting the rats to an aversive stimulus (water) and observing the increase in fecal output over a period of time. […] Control rats received an equivalent amount of saline SC.

[2] = tested on: stress-induced fecal output; test: Psychological stress-induced (water avoidance) IBS model, PO administration by gavage; assay type: in vivo, rat; details: for oral activity against stress-induced fecal output (in words): PO gavage, non-fasted rats, 11.6-115.6 μmol/kg; for Stool Output: 6-hr collection; for % Reduction: vs stressed controls, 6 hr
Text: as §1
Animal care and experimental procedures were approved by the Institutional Animal Care and Use Committee. Male Sprague-Dawley rats (250-350 g, Harlan Sprague-Dawley, Indianapolis, Ind.) were housed in polycarbonate cages in a temperature- and humidity-controlled room with a 12-hour light/dark cycle. The experiments were performed at the same time of the day to decrease diurnal variability. A typical experiment involved 20 rats: 5 saline-treated controls and 5 pretreated with polyamine analogues at each of three doses as either a SC injection or a PO gavage. The rats in the SC studies and in one set of experiments involving PO administration were allowed ad libitum access to a standard rodent diet and tap water until the morning of the experiment. Stress was initiated 30 minutes post drug as described below. In another set of experiments involving PO administration, the animals were fasted overnight but were allowed free access to water. The animals were then stressed from ½ h to 2 h post-drug (data not shown). In a final experiment, non-stressed control rats were injected with saline SC and housed in individual polycarbonate cages. The fecal output (number of pellets) of the stressed and unstressed animals was recorded at 30-min intervals for a 6-h period, during which they received no food or water.
as §2, with “Once the drug had been administered, the animals were housed individually in polycarbonate cages containing a clear 70×50 mm Pyrex crystallization dish (Fisher, Pittsburgh, Pa.) inverted in the center and held in place with vacuum grease. To initiate” for “To initiate”
as §3
Because an orally active compound would be desirable for the treatment of IBS, selected analogues utilizing oral administration in the same model were assessed. In the initial studies animals were utilized that had been fasted overnight. Rodents were then given the drug of interest PO by gavage and stressed ½ h, 1 h, or 2 h post-drug. Unfortunately, because of the low baseline stool output in fasted control rats, the reductions in fecal output observed upon drug administration cannot be reported with any confidence (data not shown). Thereafter, only non-fasted animals were employed and were given the agents by gavage at doses of 11.6, 23.2, 57.8, or 115.6:mol/kg 30 minutes before initiating the stress. […] At doses of 11.6 and 23.2:mol/kg, CHX(3,4,3)-trans reduced stooling by about 80% (P=0.001 and <0.001, respectively). DEHSPM was effective at a dose of […]:mol/kg (40% diminution of fecal output; P<0.01), and DE(5,4,5) was active at doses of 23.2 and 57.8:mol/kg (55 and 73% reductions in fecal output, respectively; P<0.001 for both doses).

[3] = tested on: castor oil-induced diarrhea; details: doses equivalent to a 5 mg/kg dose of DEHSPM; cited from earlier work
[4] = 2.3 μmol/kg SC, stress 30 min post drug
[5] = Rattus norvegicus, 2.3 μmol/kg SC, vs stressed controls, 6 h, read-out: % Reduction
[6] = Rattus norvegicus, 11.6 μmol/kg SC, vs stressed controls, 6 h, read-out: % Reduction
[7] = Rattus norvegicus, 23.2 μmol/kg SC, vs stressed controls, 6 h, read-out: % Reduction
[8] = Rattus norvegicus, 57.8 μmol/kg SC, vs stressed controls, 6 h, read-out: % Reduction

## CC(C)NCCCNCCCNCCCNC(C)C [Compound 2]
[1]; [4]
  Stool Output: 17.6 ± 5.5 number of fecal pellets
[1]; 11.6 μmol/kg SC
  Stool Output: 13.6 ± 3.2 number of fecal pellets
[1]; 57.8 μmol/kg SC
  Stool Output: 7.4 ± 3.6 number of fecal pellets
[1]; SC administration to stressed rats
  activity at diminishing stress-induced fecal output (in words): ineffective

## CCCNCCCNCCCCNCCCNCCC [Compound 4]
[1]; [4]
  Stool Output: 11.4 ± 7.2 number of fecal pellets
[1]; 11.6 μmol/kg SC
  Stool Output: 11.5 ± 8.7 number of fecal pellets
[1]; 23.2 μmol/kg SC
  Stool Output: 5.7 ± 4.1 number of fecal pellets
[1]; 57.8 μmol/kg SC
  Stool Output: 0.2 ± 0.4 number of fecal pellets
[1]; [5]
  inhibition in vivo at 2.3 µmol/kg: 49%
[1]; [6]
  inhibition in vivo at 11.6 µmol/kg: 48%
[1]; [7]
  inhibition in vivo at 23.2 µmol/kg: 74%
[1]; [8]
  inhibition in vivo at 57.8 µmol/kg: 99%

## CC(C)NCCCNCCCCNCCCNC(C)C [Compound 6, N^1,N^12 diisopropylspermine]
[1]; 5.8 μmol/kg SC
  Stool Output: 4.6 ± 2.3 number of fecal pellets
[1]; 11.6 μmol/kg SC
  Stool Output: 1.6 ± 1.8 number of fecal pellets
[1]; Rattus norvegicus, 5.8 μmol/kg SC, vs stressed controls, 6 h, read-out: % Reduction
  inhibition in vivo at 5.8 µmol/kg: 70%
[1]; [6]
  inhibition in vivo at 11.6 µmol/kg: 90%
[2]
  oral activity against stress-induced fecal output (in words): only CHX(3,4,3)-trans, DEHSPM, and DE(5,4,5) showed any activity at all

## CC(C)CNCCCNCCCCNCCCNCC(C)C [Compound 7]
[1]; [4]
  Stool Output: 15.9 ± 5.7 number of fecal pellets
[1]; 11.6 μmol/kg SC
  Stool Output: 12.2 ± 2.7 number of fecal pellets
[1]; 23.2 μmol/kg SC
  toxic effects observed in stressed rats: ^gToxic effects were evident, including huddling in the corner of the cage.
  Stool Output: 6.6 ± 3.1 number of fecal pellets
[1]; [6]
  inhibition in vivo at 11.6 µmol/kg: 34%
[1]; [7]
  inhibition in vivo at 23.2 µmol/kg: 64%
[3]
  neurotoxicity in rats at subtherapeutic doses: Signs of neurotoxicity

## CC(C)CNCCCNCCCCNCCCN [Compound 8]
[1]; [4]
  Stool Output: 14.8 ± 3.8 number of fecal pellets
[1]; 11.6 μmol/kg SC
  Stool Output: 11.2 ± 2.2 number of fecal pellets
[1]; 23.2 μmol/kg SC
  toxic effects observed in stressed rats: ^gToxic effects were evident, including huddling in the corner of the cage.
  Stool Output: 10.6 ± 2.9 number of fecal pellets
[1]; [5]
  inhibition in vivo at 2.3 µmol/kg: 30%
[1]; [6]
  inhibition in vivo at 11.6 µmol/kg: 47%
[1]; [7]
  inhibition in vivo at 23.2 µmol/kg: 50%

## CC(C)CCNCCCNCCCCNCCCNCCC(C)C [Compound 9]
[1]; [4]
  Stool Output: 18.2 ± 2.8 number of fecal pellets
[1]; 11.6 μmol/kg SC
  Stool Output: 14.6 ± 4.5 number of fecal pellets
[1]; 57.8 μmol/kg SC
  toxic effects observed in stressed rats: ^hDue to severe CNS toxicity, 3 of the 5 rats were removed after 4-4.5 h; neither of the remaining 2 rats had any stool output for the remainder of the study.
  Stool Output: 0 ± 0 number of fecal pellets
[1]; 57.8 μmol/kg SC, listed as DIPESPM
  toxic effects observed in stressed rats: severe neurotoxicity
[1]; [8]
  inhibition in vivo at 57.8 µmol/kg: 100%
[3]
  neurotoxicity in rats at subtherapeutic doses: Signs of neurotoxicity

## c1ccc(CNCCCNCCCCNCCCNCc2ccccc2)cc1 [Compound 10]
[1]; [4]
  Stool Output: 12.6 ± 4.8 number of fecal pellets
[1]; 11.6 μmol/kg SC
  Stool Output: 11.6 ± 2.9 number of fecal pellets
[1]; 57.8 μmol/kg SC
  Stool Output: 8.4 ± 1.5 number of fecal pellets
[1]; [8]
  inhibition in vivo at 57.8 µmol/kg: 55%

## FC(F)(F)c1ccccc1CCNCCCNCCCCNCCCNCCc1ccccc1C(F)(F)F [Compound 11]
[1]; [4]
  Stool Output: 12.4 ± 2.1 number of fecal pellets
[1]; 11.6 μmol/kg SC
  Stool Output: 13.6 ± 5.1 number of fecal pellets
[1]; 23.2 μmol/kg SC
  Stool Output: 11.4 ± 2.1 number of fecal pellets

## CCNCCCCCNCCCCNCCCCCNCC [Compound 14, N,N′-bis[5-(ethylamino)pentyl]-1,4-butanediamine]
[1]; [4]
  Stool Output: 13.2 ± 6.3 number of fecal pellets
[1]; 11.6 μmol/kg SC
  Stool Output: 2.2 ± 3.3 number of fecal pellets
[1]; 57.8 μmol/kg SC
  Stool Output: 0 ± 0 number of fecal pellets
[1]; [6]
  inhibition in vivo at 11.6 µmol/kg: 88%
[1]; [8]
  inhibition in vivo at 57.8 µmol/kg: 100%
[2]; 11.6 μmol/kg PO
  Stool Output: 15.2 ± 8.5 number of fecal pellets
[2]; 23.2 μmol/kg PO
  Stool Output: 8.6 ± 4.9 number of fecal pellets
  % Reduction: 55%
[2]; 57.8 μmol/kg PO
  Stool Output: 5.1 ± 3.1 number of fecal pellets
  % Reduction: 73%

## C(CCNCCC1CCNCC1)CNCCC1CCNCC1 [Compound 15, N,N′-bis[2-(4-piperidinyl)ethyl]-1,4-diaminobutane]
[1]; 2.32 μmol/kg SC
  Stool Output: 8.8 ± 1.6 number of fecal pellets
[1]; 11.57 μmol/kg SC
  Stool Output: 8.2 ± 3.1 number of fecal pellets
[1]; 57.8 μmol/kg SC
  Stool Output: 2.0 ± 2.0 number of fecal pellets
[1]; [8]
  inhibition in vivo at 57.8 µmol/kg: 82%
[2]
  oral activity against stress-induced fecal output (in words): only CHX(3,4,3)-trans, DEHSPM, and DE(5,4,5) showed any activity at all

## CCNCCCCCCNCCCNCCCNCC [Compound 16]
[1]; 2.31 μmol/kg SC
  Stool Output: 10.4 ± 5.2 number of fecal pellets
[1]; 11.56 μmol/kg SC
  Stool Output: 9.4 ± 4.1 number of fecal pellets
[1]; 57.8 μmol/kg SC
  toxic effects observed in stressed rats: ^iThe rats were quite lethargic, as though sedated, after drug administration.
  Stool Output: 0.4 ± 0.9 number of fecal pellets
[1]; [8]
  inhibition in vivo at 57.8 µmol/kg: 97%

## CC(C)NCCCCCCNCCCNCCCNC(C)C [Compound 17]
[1]; 2.32 μmol/kg SC
  toxic effects observed in stressed rats: ^iThe rats were quite lethargic, as though sedated, after drug administration.
  Stool Output: 1.4 ± 1.9 number of fecal pellets
[1]; 11.56 μmol/kg SC
  toxic effects observed in stressed rats: ^iThe rats were quite lethargic, as though sedated, after drug administration.
  Stool Output: 0 ± 0 number of fecal pellets
[1]; 57.8 μmol/kg SC
  toxic effects observed in stressed rats: ^iThe rats were quite lethargic, as though sedated, after drug administration.
  Stool Output: 0 ± 0 number of fecal pellets
[1]; Rattus norvegicus, 2.32 μmol/kg SC, vs stressed controls, 6 h, read-out: % Reduction
  inhibition in vivo at 2.32 µmol/kg: 84%
[1]; Rattus norvegicus, 11.56 μmol/kg SC, vs stressed controls, 6 h, read-out: % Reduction
  inhibition in vivo at 11.56 µmol/kg: 100%
[1]; [8]
  inhibition in vivo at 57.8 µmol/kg: 100%
